Experimental data published in patent US20250270230A1, “NOVEL SYNTHETIC STEPS FOR THE MANUFACTURING METHOD OF THE PDE4B-INHIBITOR 1-({(5R)-2-[4-(5-CHLOROPYRIMIDINE-2-YL)PIPERIDINE-1-YL]-5-OXIDO-6,7-DIHYDROTHIENO[3,2-D]PYRIMIDINE-4-YL}AMINO)CYCLOBUTYL]METHANOL” (Boehringer Ingelheim International GmbH, priority 2023, published 2025).
Read-outs that look alike come from different tables or passages of the source.

Key:
[1] = Long-term stability of water-free material regarding hydrolysis side-reactions; type: physicochemical; details: water-free form (recrystallization variant A, 1,4-dioxane)
Text: For example with the additional recrystallization step according to variant A (recrystallization from 1,4-dioxane) Intermediate XVIII is obtained as a water-free form (examples 1 and 2). The water-free material is long-term stable (>12 months) regarding hydrolysis side-reactions, which can occur at two positions of Intermediate XVII by forming IMP-A and IMP-B (see Scheme 5).
In comparison to the process as described in U.S. Pat. No. 8,609,670B, the additional recrystallization step after the enantioselective oxidation step according to variant A yielding Intermediate XVIII also improves the quality of the sulfoxide XVII critically. Hereby, Intermediate XVIII is obtained as a water-free form. The water-free material is long-term stable (>12 months) regarding hydrolysis side-reactions, which can occur at two positions of Intermediate XVII by forming the impurities IMP-A and IMP-B (see Scheme 14).

[2] = Form conversion from crystalline Form A to Form B followed by Raman spectroscopy; type: physicochemical; details: 40° C., n-propanol/water, seeding with Form B
Experimental: Form A was charged to the reactor as the starting material. 7.0 VP of n-propanol and […] were used along with Raman probe to confirm the rate of conversion by holding the conversion at different temperature. The rate of form conversion from crystalline Form A to crystalline Form B of the PDE4B-inhibitor of formula XX was studied at 20, 40 and 70° C. with 10% seeding with crystalline Form B seeding crystals.
At 20 or 70° C., the conversion rate was similar, but definitely slower than at 40° C.
The temperature of 40° C. allows a full conversion of crystalline Form A into crystalline Form B in less than 4 hours, preferably even in 2 hours (see also FIGS. 1a and 1b). […] However, the crystallization procedure to yield the Compound of formula XX as crystalline Form B (on production scale) as described in Chapter 3.10 reduces the crystallization time down to not more than 9 hours from the timepoint of seeding, which means a significant improvement in the cycling time.

[3] = Stress test-experiments of the hydrolysis reactions of Intermediate XVII; type: physicochemical
Experimental: (§1) It is shown, that hydrolysis toward IMP-A occurs at 60° C. and 90° C. (examples 1 and 2). The hydrolysis reaction itself is promoted by titanium residues, as example 2 with 671 mg/kg titanium leads to higher impurity levels of IMP-A compared to example 1, which has a lower titanium content (<251 mg/kg).
as §1, with “mg/kg titanium content leads to” for “mg/kg titanium leads to”

[4] = Storage stability of intermediates at room temperature; type: physicochemical
Text: The alternative synthesis method to manufacture Intermediate VIII has several advantages over the method of manufacturing Intermediate VIII (or Intermediate G as it is called in U.S. Pat. No. […]): • The new Suzuki-reaction process offers much better control of impurities by avoiding the formation of N-methylation at the piperidine ring. The methylation of the piperidine-ring occurs in the original process according to U.S. Pat. No. 8,609,670 during the use of methanol and 4M hydrochloric acid in 1,4-dioxane and takes place via the in situ formed cancerogenic compound methyl chloride. […] 0.05 m % (0.02 mol %) Pd(amphos)2Cl2 is sufficient for the Suzuki cross-coupling reaction to complete the conversion in less than 3 hours. In literature, significant higher amounts of Pd-catalyst have been described so far [a) K.-T.-Wong et al, Org. […] Second, the reproducibility of yield and quality is very high and consistent as observed on production scale over several batches. […]

[5] = system: patients with idiopathic pulmonary fibrosis (IPF); details: Phase II, cited from earlier work
PDE4B subunit = PDE4B subunit (Homo sapiens, UniProt Q07343); details: cited from earlier work
[6] = Competitive slurries containing Form A, Form B and Form C (thermodynamic stability); type: physicochemical
Experimental: Few other crystalline forms were observed during the initial and extended solid form screening by using various techniques. […] Its thermodynamic stability has been confirmed by competitive slurries containing Form A, Form B and Form C. Form B was the predominant form in all solvents and temperature conditions, except for the solvent water (with a water activity of 1) at temperatures between 5 and 25° C. which yielded Form C.

[7] = batch Example 1, Ti content <251 mg/kg
[8] = batch Example 2, Ti content 671 mg/kg

PDE4B subunit, sequence (Q07343 whole entry): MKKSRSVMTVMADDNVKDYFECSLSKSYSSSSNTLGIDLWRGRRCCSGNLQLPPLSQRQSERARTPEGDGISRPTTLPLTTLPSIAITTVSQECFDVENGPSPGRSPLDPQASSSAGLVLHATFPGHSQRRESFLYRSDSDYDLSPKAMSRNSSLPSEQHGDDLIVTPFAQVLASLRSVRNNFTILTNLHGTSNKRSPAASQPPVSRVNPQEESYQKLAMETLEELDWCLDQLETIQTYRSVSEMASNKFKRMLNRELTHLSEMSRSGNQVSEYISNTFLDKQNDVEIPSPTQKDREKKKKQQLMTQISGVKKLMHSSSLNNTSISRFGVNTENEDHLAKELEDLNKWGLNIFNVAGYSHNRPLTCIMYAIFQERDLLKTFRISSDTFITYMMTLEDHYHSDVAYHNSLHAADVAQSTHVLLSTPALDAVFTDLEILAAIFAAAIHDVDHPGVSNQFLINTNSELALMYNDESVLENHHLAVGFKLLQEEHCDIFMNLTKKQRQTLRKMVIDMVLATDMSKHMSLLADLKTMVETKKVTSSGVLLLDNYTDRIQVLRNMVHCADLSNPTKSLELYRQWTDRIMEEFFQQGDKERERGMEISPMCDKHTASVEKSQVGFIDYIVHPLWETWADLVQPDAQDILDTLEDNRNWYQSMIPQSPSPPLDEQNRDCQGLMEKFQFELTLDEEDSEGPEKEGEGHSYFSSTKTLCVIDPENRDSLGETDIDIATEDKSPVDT

Compound: [O-][S@+]1CCc2nc(Cl)nc(NC3(CO)CCC3)c21 [Intermediate XVIII]
- long-term stability regarding hydrolysis side-reactions [1]: > 12 months

Compound: [O-][S@+]1CCc2nc(N3CCC(c4ncc(Cl)cn4)CC3)nc(NC3(CO)CCC3)c21 [Form A]
- time for full conversion of crystalline Form A into crystalline Form B [2]: less than 4 hours

Compound: [O-][S@+]1CCc2nc(Cl)nc(NC3(CO)CCC3)c21 [Intermediate XVII, 1-[[(5R)-2-chloro-6,7-dihydro-5-oxidothieno[3,2-d]pyrimidin-4-yl]amino]-cyclobutanemethanol]
- IMP-A content in XVII after 1 week at 60° C. [3, 7]: 0.13%
- IMP-A content in XVII after 1 week at 90° C. [3, 7]: 0.16%
- IMP-A content in XVII at t = 0 [3, 7]: 0.10%
- IMP-B content in XVII after 1 week at 60° C. [3, 7]: 0.05%
- IMP-B content in XVII after 1 week at 90° C. [3, 7]: 0.34%
- IMP-B content in XVII at t = 0 [3, 7]: <0.05%
- IMP-A content in XVII after 1 week at 60° C. [3, 8]: 0.19%
- IMP-A content in XVII after 1 week at 90° C. [3, 8]: 0.32%
- IMP-A content in XVII at t = 0 [3, 8]: <0.05%
- IMP-B content in XVII after 1 week at 60° C. [3, 8]: <0.05%
- IMP-B content in XVII after 1 week at 90° C. [3, 8]: 0.54%
- IMP-B content in XVII at t = 0 [3, 8]: <0.05%

Compound: CC(C)(C)OC(=O)N1CC=C(c2ncc(Cl)cn2)CC1 [Intermediate VI]
- storage stability [4]: stable for storage at room temperature

Compound: [O-][S@+]1CCc2nc(N3CCC(c4ncc(Cl)cn4)CC3)nc(NC3(CO)CCC3)c21 [Compound XX, 1-({(5R)-2-[4-(5-CHLOROPYRIMIDINE-2-YL)PIPERIDINE-1-YL]-5-OXIDO-6,7-DIHYDROTHIENO[3,2-D]PYRIMIDINE-4-YL}AMINO)CYCLOBUTYL]METHANOL]
- lung function decline ([5]; IPF patients already taking approved antifibrotics (Nintedanib or Pirfenidon) as background): reduction in lung function decline could be observed
- lung function decline ([5]; IPF patients not on approved antifibrotics as background treatment): reduction in lung function decline could be observed
- rate of lung function decline ([5]; IPF patients, within 12 weeks of treatment): reduction in the rate of lung function decline
- PDE4 subunit preference (PDE4B subunit): preferentially inhibits the PDE4B subunit

Compound: [O-][S@+]1CCc2nc(N3CCC(c4ncc(Cl)cn4)CC3)nc(NC3(CO)CCC3)c21 [Form B]
- thermodynamic stability of crystalline form [6]: thermodynamically most stable form
